Assay results: US20120245159A1, “COMPOSITION AND METHOD FOR CONTROLLING ARTHROPOD PESTS” (SUMITOMO CHEMICAL COMPANY, LIMITED, priority 2009, published 2012)

The molecules below were run on brown planthopper (Nilaparvata lugens) (assay: Test Example 2: pesticidal effect against brown planthopper by foliage spray treatment of rice (control value)). Conditions: composition of the compound and clothianidin; foliage spray of rice seedlings, third-instar larvae, after 5 days; summary of Table 44.
Type: in vivo

| Compound | pesticidal efficacy against brown planthopper (Nilaparvata lugens) |
| --- | --- |
| FC(F)(F)c1ccc2oc(-c3ccncc3Cl)nc2c1 [Compound 18, 2-(3-chloropyridin-4-yl)-5-(trifluoromethyl)benzoxazole] | high pesticidal efficacy |
| CC(C)Oc1cnccc1-c1nc2cc(C(F)(F)F)ccc2o1 [Compound 70, 2-(3-isopropoxypyridin-4-yl)-5-(trifluoromethyl)benzoxazole] | high pesticidal efficacy |
| FC(F)(F)Sc1ccc2oc(-c3ccncc3Cl)nc2c1 [Compound 77, 2-(3-chloropyridin-4-yl)-5-(trifluoromethylthio)benzoxazole] | high pesticidal efficacy |
| CCc1cnccc1-c1nc2cc(OC(F)(F)F)ccc2o1 [Compound 109, 2-(3-ethylpyridin-4-yl)-5-(trifluoromethoxy)benzoxazole] | high pesticidal efficacy |
| FC(F)(F)c1ccc2oc(-c3ccncc3-c3cccnc3)nc2c1 [Compound 128, 4-(5-trifluoromethyl-benzoxazole-2-yl)-[3,3′]bipyridinyl] | high pesticidal efficacy |
| FC(F)(F)c1cnc2oc(-c3ccncc3Cl)nc2c1 [Compound 139, 2-(3-chloropyridin-4-yl)-6-(trifluoromethyl)oxazolo[5,4-b]pyridine] | high pesticidal efficacy |
| CCc1cnccc1-c1nc2cc(C(F)(F)F)cnc2o1 [Compound 143, 2-(3-ethylpyridin-4-yl)-6-(trifluoromethyl)oxazolo[5,4-b]pyridine] | high pesticidal efficacy |
| CSc1cnccc1-c1nc2cc(C(F)(F)F)cnc2o1 [Compound 146, 2-(3-methylthiopyridin-4-yl)-6-(trifluoromethyl)oxazolo[5,4-b]pyridine] | high pesticidal efficacy |

Same assay, conditions: composition of the compound and dinotefuran; foliage spray of rice seedlings, third-instar larvae, after 5 days; summary of Table 48

| Compound | pesticidal efficacy against brown planthopper (Nilaparvata lugens) |
| --- | --- |
| FC(F)(F)c1ccc2oc(-c3ccncc3Cl)nc2c1 [Compound 18, 2-(3-chloropyridin-4-yl)-5-(trifluoromethyl)benzoxazole] | high pesticidal efficacy |
| CC(C)Oc1cnccc1-c1nc2cc(C(F)(F)F)ccc2o1 [Compound 70, 2-(3-isopropoxypyridin-4-yl)-5-(trifluoromethyl)benzoxazole] | high pesticidal efficacy |
| FC(F)(F)Sc1ccc2oc(-c3ccncc3Cl)nc2c1 [Compound 77, 2-(3-chloropyridin-4-yl)-5-(trifluoromethylthio)benzoxazole] | high pesticidal efficacy |
| CCc1cnccc1-c1nc2cc(OC(F)(F)F)ccc2o1 [Compound 109, 2-(3-ethylpyridin-4-yl)-5-(trifluoromethoxy)benzoxazole] | high pesticidal efficacy |
| FC(F)(F)c1ccc2oc(-c3ccncc3-c3cccnc3)nc2c1 [Compound 128, 4-(5-trifluoromethyl-benzoxazole-2-yl)-[3,3′]bipyridinyl] | high pesticidal efficacy |
| FC(F)(F)c1cnc2oc(-c3ccncc3Cl)nc2c1 [Compound 139, 2-(3-chloropyridin-4-yl)-6-(trifluoromethyl)oxazolo[5,4-b]pyridine] | high pesticidal efficacy |
| CCc1cnccc1-c1nc2cc(C(F)(F)F)cnc2o1 [Compound 143, 2-(3-ethylpyridin-4-yl)-6-(trifluoromethyl)oxazolo[5,4-b]pyridine] | high pesticidal efficacy |
| CSc1cnccc1-c1nc2cc(C(F)(F)F)cnc2o1 [Compound 146, 2-(3-methylthiopyridin-4-yl)-6-(trifluoromethyl)oxazolo[5,4-b]pyridine] | high pesticidal efficacy |

Same assay, conditions: composition of the compound and imidacloprid; foliage spray of rice seedlings, third-instar larvae, after 5 days; summary of Table 47

| Compound | pesticidal efficacy against brown planthopper (Nilaparvata lugens) |
| --- | --- |
| FC(F)(F)c1ccc2oc(-c3ccncc3Cl)nc2c1 [Compound 18, 2-(3-chloropyridin-4-yl)-5-(trifluoromethyl)benzoxazole] | high pesticidal efficacy |
| CC(C)Oc1cnccc1-c1nc2cc(C(F)(F)F)ccc2o1 [Compound 70, 2-(3-isopropoxypyridin-4-yl)-5-(trifluoromethyl)benzoxazole] | high pesticidal efficacy |
| FC(F)(F)Sc1ccc2oc(-c3ccncc3Cl)nc2c1 [Compound 77, 2-(3-chloropyridin-4-yl)-5-(trifluoromethylthio)benzoxazole] | high pesticidal efficacy |
| CCc1cnccc1-c1nc2cc(OC(F)(F)F)ccc2o1 [Compound 109, 2-(3-ethylpyridin-4-yl)-5-(trifluoromethoxy)benzoxazole] | high pesticidal efficacy |
| FC(F)(F)c1ccc2oc(-c3ccncc3-c3cccnc3)nc2c1 [Compound 128, 4-(5-trifluoromethyl-benzoxazole-2-yl)-[3,3′]bipyridinyl] | high pesticidal efficacy |
| FC(F)(F)c1cnc2oc(-c3ccncc3Cl)nc2c1 [Compound 139, 2-(3-chloropyridin-4-yl)-6-(trifluoromethyl)oxazolo[5,4-b]pyridine] | high pesticidal efficacy |
| CCc1cnccc1-c1nc2cc(C(F)(F)F)cnc2o1 [Compound 143, 2-(3-ethylpyridin-4-yl)-6-(trifluoromethyl)oxazolo[5,4-b]pyridine] | high pesticidal efficacy |
| CSc1cnccc1-c1nc2cc(C(F)(F)F)cnc2o1 [Compound 146, 2-(3-methylthiopyridin-4-yl)-6-(trifluoromethyl)oxazolo[5,4-b]pyridine] | high pesticidal efficacy |

Same assay, conditions: composition of the compound and nitenpyram; foliage spray of rice seedlings, third-instar larvae, after 5 days; summary of Table 45

| Compound | pesticidal efficacy against brown planthopper (Nilaparvata lugens) |
| --- | --- |
| FC(F)(F)c1ccc2oc(-c3ccncc3Cl)nc2c1 [Compound 18, 2-(3-chloropyridin-4-yl)-5-(trifluoromethyl)benzoxazole] | high pesticidal efficacy |
| CC(C)Oc1cnccc1-c1nc2cc(C(F)(F)F)ccc2o1 [Compound 70, 2-(3-isopropoxypyridin-4-yl)-5-(trifluoromethyl)benzoxazole] | high pesticidal efficacy |
| FC(F)(F)Sc1ccc2oc(-c3ccncc3Cl)nc2c1 [Compound 77, 2-(3-chloropyridin-4-yl)-5-(trifluoromethylthio)benzoxazole] | high pesticidal efficacy |
| CCc1cnccc1-c1nc2cc(OC(F)(F)F)ccc2o1 [Compound 109, 2-(3-ethylpyridin-4-yl)-5-(trifluoromethoxy)benzoxazole] | high pesticidal efficacy |
| FC(F)(F)c1ccc2oc(-c3ccncc3-c3cccnc3)nc2c1 [Compound 128, 4-(5-trifluoromethyl-benzoxazole-2-yl)-[3,3′]bipyridinyl] | high pesticidal efficacy |
| FC(F)(F)c1cnc2oc(-c3ccncc3Cl)nc2c1 [Compound 139, 2-(3-chloropyridin-4-yl)-6-(trifluoromethyl)oxazolo[5,4-b]pyridine] | high pesticidal efficacy |
| CCc1cnccc1-c1nc2cc(C(F)(F)F)cnc2o1 [Compound 143, 2-(3-ethylpyridin-4-yl)-6-(trifluoromethyl)oxazolo[5,4-b]pyridine] | high pesticidal efficacy |
| CSc1cnccc1-c1nc2cc(C(F)(F)F)cnc2o1 [Compound 146, 2-(3-methylthiopyridin-4-yl)-6-(trifluoromethyl)oxazolo[5,4-b]pyridine] | high pesticidal efficacy |

Same assay, conditions: composition of the compound and thiamethoxam; foliage spray of rice seedlings, third-instar larvae, after 5 days; summary of Table 46

| Compound | pesticidal efficacy against brown planthopper (Nilaparvata lugens) |
| --- | --- |
| FC(F)(F)c1ccc2oc(-c3ccncc3Cl)nc2c1 [Compound 18, 2-(3-chloropyridin-4-yl)-5-(trifluoromethyl)benzoxazole] | high pesticidal efficacy |
| CC(C)Oc1cnccc1-c1nc2cc(C(F)(F)F)ccc2o1 [Compound 70, 2-(3-isopropoxypyridin-4-yl)-5-(trifluoromethyl)benzoxazole] | high pesticidal efficacy |
| FC(F)(F)Sc1ccc2oc(-c3ccncc3Cl)nc2c1 [Compound 77, 2-(3-chloropyridin-4-yl)-5-(trifluoromethylthio)benzoxazole] | high pesticidal efficacy |
| CCc1cnccc1-c1nc2cc(OC(F)(F)F)ccc2o1 [Compound 109, 2-(3-ethylpyridin-4-yl)-5-(trifluoromethoxy)benzoxazole] | high pesticidal efficacy |
| FC(F)(F)c1ccc2oc(-c3ccncc3-c3cccnc3)nc2c1 [Compound 128, 4-(5-trifluoromethyl-benzoxazole-2-yl)-[3,3′]bipyridinyl] | high pesticidal efficacy |
| FC(F)(F)c1cnc2oc(-c3ccncc3Cl)nc2c1 [Compound 139, 2-(3-chloropyridin-4-yl)-6-(trifluoromethyl)oxazolo[5,4-b]pyridine] | high pesticidal efficacy |
| CCc1cnccc1-c1nc2cc(C(F)(F)F)cnc2o1 [Compound 143, 2-(3-ethylpyridin-4-yl)-6-(trifluoromethyl)oxazolo[5,4-b]pyridine] | high pesticidal efficacy |
| CSc1cnccc1-c1nc2cc(C(F)(F)F)cnc2o1 [Compound 146, 2-(3-methylthiopyridin-4-yl)-6-(trifluoromethyl)oxazolo[5,4-b]pyridine] | high pesticidal efficacy |

These molecules were tested on cotton aphid (Aphis gossypii) (assay: Test Example 1: pesticidal effect against cotton aphid by spray treatment (cucumber leaf disk, control value)). Conditions: composition of the compound and clothianidin; spray over cucumber leaf disk, 25° C., 5 days; summary of Table 43.
Type: in vivo
Protocol: A commercially available clothianidin water-soluble agent, manufactured by Sumitomo Chemical Co., Ltd. under the product name of Dantotsu (registered trademark) water-soluble agent, as the neonicotinoide compound was diluted with water. […] In a well of 24-well plate containing agar, a cucumber leaf disk was put on the agar and about 15 cotton aphids (Aphis gossypii) were released on the leaf disk. The test chemical solution (20 μl/well) was sprayed over the leaf disk, followed by storage in a constant-temperature breeding room at 25° C. for 5 days, and then the number of surviving aphids was checked. A control value (%) was calculated by the following equation. […] wherein symbols represents the following meanings. Cb: Number of bugs in non-treated group before treatment Cai: Number of bugs in a non-treated group on observation Tb: Number of bugs in treated group before treatment Tai: Number of bugs in treated group on observation

| Compound | pesticidal efficacy against cotton aphid (Aphis gossypii) |
| --- | --- |
| FC(F)(F)c1ccc2oc(-c3ccncc3)nc2c1 [Compound 13, 2-(pyridin-4-yl)-5-(trifluoromethyl)benzoxazole] | high pesticidal efficacy |
| FC(F)(F)c1ccc2oc(-c3ccncc3Cl)nc2c1 [Compound 18, 2-(3-chloropyridin-4-yl)-5-(trifluoromethyl)benzoxazole] | high pesticidal efficacy |
| Cc1c[n+]([O-])ccc1-c1nc2cc(C(F)(F)F)ccc2o1 [Compound 24, 3-methyl-4-[5-(trifluoromethyl)benzoxazole-2-yl]pyridine N-oxide] | high pesticidal efficacy |
| CCc1cnccc1-c1nc2cc(C(F)(F)F)ccc2o1 [Compound 35, 2-(3-ethylpyridin-4-yl)-5-(trifluoromethyl)benzoxazole] | high pesticidal efficacy |
| CSc1cnccc1-c1nc2cc(C(F)(F)F)ccc2o1 [Compound 40, 2-[3-(methylthio)pyridin-4-yl]-5-(trifluoromethyl)benzoxazole] | high pesticidal efficacy |
| FC(F)(F)C(F)(F)c1ccc2oc(-c3ccncc3)nc2c1 [Compound 65, 5-(pentafluoroethyl)-2-(pyridin-4-yl)-benzoxazole] | high pesticidal efficacy |
| CC(C)Oc1cnccc1-c1nc2cc(C(F)(F)F)ccc2o1 [Compound 70, 2-(3-isopropoxypyridin-4-yl)-5-(trifluoromethyl)benzoxazole] | high pesticidal efficacy |
| FC(F)(F)Sc1ccc2oc(-c3ccncc3Cl)nc2c1 [Compound 77, 2-(3-chloropyridin-4-yl)-5-(trifluoromethylthio)benzoxazole] | high pesticidal efficacy |
| COc1cnccc1-c1nc2cc3c(cc2o1)C(F)(F)OC3(F)F [Compound 88, 5,5,7,7-tetrafluoro-2-(3-methoxypyridin-4-yl)-5,7-dihydro-furo[3′,4′:4,5]benzo[1,2-d]oxazole] | high pesticidal efficacy |
| FC(F)COc1cnccc1-c1nc2cc(C(F)(F)F)ccc2o1 [Compound 110, 2-[3-(2,2-difluoroethoxy)pyridin-4-yl]-5-(trifluoromethyl)benzoxazole] | high pesticidal efficacy |
| FC(F)(F)c1ccc2oc(-c3ccncc3-c3cccnc3)nc2c1 [Compound 128, 4-(5-trifluoromethyl-benzoxazole-2-yl)-[3,3′]bipyridinyl] | high pesticidal efficacy |
| CC(C)N(C)c1cnccc1-c1nc2cc(C(F)(F)F)ccc2o1 [Compound 132, isopropyl-methyl-{4-[5-(trifluoromethyl)benzoxazole-2-yl]pyridin-3-yl}amine] | high pesticidal efficacy |
| CCS(=O)(=O)c1cnccc1-c1nc2cc(C(F)(F)F)ccc2o1 [Compound 133, 2-[3-(ethanesulfonyl)pyridin-4-yl]-5-(trifluoromethyl)benzoxazole] | high pesticidal efficacy |
| FC(F)(F)c1cnc2oc(-c3ccncc3)nc2c1 [Compound 138, 2-pyridin-4-yl-6-(trifluoromethyl)oxazolo[5,4-b]pyridine] | high pesticidal efficacy |
| [O-][n+]1ccc(-c2nc3cc(C(F)(F)F)cnc3o2)c(Cl)c1 [Compound 140, 2-(3-chloro-1-oxypyridin-4-yl)-6-(trifluoromethyl)oxazolo[5,4-b]pyridine] | high pesticidal efficacy |
| CCc1cnccc1-c1nc2cc(C(F)(F)F)cnc2o1 [Compound 143, 2-(3-ethylpyridin-4-yl)-6-(trifluoromethyl)oxazolo[5,4-b]pyridine] | high pesticidal efficacy |
| FC(F)(F)c1cnc2oc(-c3ccncc3C(F)(F)F)nc2c1 [Compound 144, 6-trifluoromethyl-2-[3-(trifluoromethyl)pyridin-4-yl]-oxazolo[5,4-b]pyridine] | high pesticidal efficacy |
| CSc1cnccc1-c1nc2cc(C(F)(F)F)cnc2o1 [Compound 146, 2-(3-methylthiopyridin-4-yl)-6-(trifluoromethyl)oxazolo[5,4-b]pyridine] | high pesticidal efficacy |
| CCS(=O)(=O)c1cnccc1-c1nc2cc(C(F)(F)F)cnc2o1 [Compound 150, 2-[3-(ethanesulfonyl)pyridin-4-yl]-6-(trifluoromethyl)oxazolo[5,4-b]pyridine] | high pesticidal efficacy |
